Series [1] concerns the target T1, AGO2 (Homo sapiens, UniProt Q9UKV8). Briefly: AGO2 immunoblot following SNO-RAC in HEK293 cells. More on the design: endogenous in cells; host or cells: HEK293. It counts as cell-based. The protocol:
S-nitrosylated proteins were isolated by SNO-RAC as described. In brief, cells were lysed in HEN buffer additionally containing 1% NP-40, 50 mM NaCl and protease inhibitors. Free cysteines were blocked with S-Methyl methanethiosulfonate (MMTS). After acetone precipitation and multiple 70% acetone washes, proteins were re-suspended in HEN buffer containing 1% SDS. 50 μl thiopropyl Sepharose 6B resin (GE, Chicago, Ill.) and 50 mM sodium ascorbate were added, followed by rotation in the dark for 4 hr at room temperature. Following multiple washes, the bound proteins were eluted in 2×SDS-PAGE loading buffer containing 10% β-mercaptoethanol. Following separation on reducing pre-cast 4-20% SDS-PAGE gels (Bio-Rad Laboratories, Hercules, Calif.), individual SNO-proteins were detected by Western blotting using specific antibodies (anti-FLAG, anti-myc, anti-ALG-1, anti-AGO2, anti-GW182) or the gel was stained using the SilverQuest™ silver staining kit (ThermoFisher Scientific, Waltham, Mass.) or Imperial™ Protein Stain (ThermoFisher Scientific, Waltham, Mass.), per manufacturer instructions.
Transfected HEK293 or HeLa cells were cultured at 37° C. in 15 cm tissue culture-treated dishes. They were then treated with either 500 μM DETA-NOate (t1/2=20 hr) for 16 hours, 100 μM CysNO for 10 min, or 200 μM dipropylenetriamine (DPTA)-NONOate (Cayman Chemicals, Ann Arbor, Mich.) for 6 hours. […]

The conditions of series [2]: cited from earlier work.
Series [3] concerns the target T1, AGO2. Briefly: let-7 luciferase reporter miRNA activity assay in HeLa cells. The note with it: WT AGO2, Hmga2 3'UTR reporter. It counts as cell-based. More on the design: expressed in transfected cells; host or cells: HeLa. The protocol:
(§1) 0.5×10^5 cells/well Hela cells were plated in wells of 24 well dishes. They were transiently transfected the next day with 2 μg of either WT-AGO2 or C691S-AGO2, plus 100 ng of either Hmga2 3′UTR-WT luciferase (Luc-wt) or Hmga2 3′UTR-mutant7 luciferase (Luc-m7) control. 100 ng pMax-GFP was also co-transfected to normalize for transfection efficiency. Transfections were carried out using Lipofectamine® 2000 transfection reagent (ThermoFisher Scientific, Waltham, Mass.). Six hours after transfection, the NO donor DETA-NONOate (Cayman Chemicals, Ann Arbor, Mich.) was added at 500 μM. The cells were harvested 24 hours post-transfection, using 1× Passive Lysis Buffer (Promega, Madison, Wis.). Renilla luciferase activity was measuredusing the Renilla Luciferase Assay System (Promega, Madison, Wis.) and a Veritas™ microplate luminometer (Turner BioSystems, Sunnyvale, Calif.) and normalized to GFP readings measured using a BMG FluoStar Galaxy microplate reader. Hmga2 3′UTR WT luciferase (Luc-wt) and Hmga2 3′UTR m7 luciferase (Luc-m7) were gifts from David Bartel (Addgene plasmid #14785 and #14788, respectively)).

The next series has as its target T2, AGO2 and GW182 (Homo sapiens, UniProt Q9UKV8).
T2 construct: host or cells: HEK293
Briefly: Co-immunoprecipitation of AGO2 and GW182 in HEK293 cells. It counts as cell-based. The protocol: Transfected HEK293 or HeLa cells were cultured at 37° C. in 15 cm tissue culture-treated dishes. They were then treated with either 500 μM DETA-NOate (t1/2=20 hr) for 16 hours, 100 μM CysNO for 10 min, or 200 μM dipropylenetriamine (DPTA)-NONOate (Cayman Chemicals, Ann Arbor, Mich.) for 6 hours. Cells were washed once with DPBS without calcium chloride and magnesium chloride from Gibco® (Life Technologies, Carlsbad, Calif.) and incubated on ice for 10 minutes in IP lysis/wash buffer (ThermoFisher Scientific, Waltham, Mass.) with added EDTA-free protease inhibitor tablet (Roche, Basel, Switzerland). This was followed by centrifugation at 14,000 g for 10 minutes to collect the supernatant. The lysates were then used for immunoprecipitation experiments.
For HEK293 cells, all steps were performed either on ice or in the cold room at 4° C. Immunoprecipitations (IP) were performed with 3 mg of total lysate that was pre-cleared using a Pierce™ control agarose resin (ThermoFisher Scientific, Waltham, Mass.), after which 10 μg of IP antibody was added, and samples were incubated overnight at 4° C. with rotation. The next day, 30 μl of protein A/G Sepharose (ThermoFisher Scientific, Waltham, Mass.) was added and the samples were incubated for 2 hours at 4° C. […] The eluates were neutralized by adding 3 μl of 1M Tris-HCl, pH 8.0 and analyzed by western blotting. […]

The target of series [4] is T3, AGO2 (Homo sapiens, UniProt Q9UKV8, C691S).
T3 construct: expressed in transfected cells; host or cells: HeLa
T3 sequence (Q9UKV8 whole entry C691S): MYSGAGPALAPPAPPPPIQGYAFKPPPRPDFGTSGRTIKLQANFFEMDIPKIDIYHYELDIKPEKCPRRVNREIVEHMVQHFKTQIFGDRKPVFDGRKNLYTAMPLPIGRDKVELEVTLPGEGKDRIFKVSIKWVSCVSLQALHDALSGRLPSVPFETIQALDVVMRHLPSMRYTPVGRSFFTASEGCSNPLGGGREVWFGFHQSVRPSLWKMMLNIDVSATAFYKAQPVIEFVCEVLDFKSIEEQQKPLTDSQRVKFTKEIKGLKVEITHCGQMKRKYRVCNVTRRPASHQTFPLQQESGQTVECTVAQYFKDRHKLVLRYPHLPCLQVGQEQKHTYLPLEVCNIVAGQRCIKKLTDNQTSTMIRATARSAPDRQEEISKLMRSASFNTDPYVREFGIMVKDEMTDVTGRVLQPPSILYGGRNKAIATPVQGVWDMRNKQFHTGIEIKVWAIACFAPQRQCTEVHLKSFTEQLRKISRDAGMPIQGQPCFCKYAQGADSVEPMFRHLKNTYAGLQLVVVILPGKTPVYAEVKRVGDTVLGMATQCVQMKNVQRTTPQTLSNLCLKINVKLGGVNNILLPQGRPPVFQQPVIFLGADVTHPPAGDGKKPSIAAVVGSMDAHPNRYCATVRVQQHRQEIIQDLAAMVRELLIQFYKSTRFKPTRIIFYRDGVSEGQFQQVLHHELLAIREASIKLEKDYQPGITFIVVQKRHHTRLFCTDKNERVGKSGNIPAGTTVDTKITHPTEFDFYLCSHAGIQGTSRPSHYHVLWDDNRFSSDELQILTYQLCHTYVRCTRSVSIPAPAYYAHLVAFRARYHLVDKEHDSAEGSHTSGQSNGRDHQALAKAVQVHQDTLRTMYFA
Briefly: let-7 luciferase reporter miRNA activity assay in HeLa cells. It counts as cell-based. The note with it: C691S AGO2, Hmga2 3'UTR reporter. How it is done: as §1
(Reporter assays use an easily measured gene product as a stand-in for the process of interest.)

Each structure is given as a SMILES string.

T1 sequence (Q9UKV8 whole entry): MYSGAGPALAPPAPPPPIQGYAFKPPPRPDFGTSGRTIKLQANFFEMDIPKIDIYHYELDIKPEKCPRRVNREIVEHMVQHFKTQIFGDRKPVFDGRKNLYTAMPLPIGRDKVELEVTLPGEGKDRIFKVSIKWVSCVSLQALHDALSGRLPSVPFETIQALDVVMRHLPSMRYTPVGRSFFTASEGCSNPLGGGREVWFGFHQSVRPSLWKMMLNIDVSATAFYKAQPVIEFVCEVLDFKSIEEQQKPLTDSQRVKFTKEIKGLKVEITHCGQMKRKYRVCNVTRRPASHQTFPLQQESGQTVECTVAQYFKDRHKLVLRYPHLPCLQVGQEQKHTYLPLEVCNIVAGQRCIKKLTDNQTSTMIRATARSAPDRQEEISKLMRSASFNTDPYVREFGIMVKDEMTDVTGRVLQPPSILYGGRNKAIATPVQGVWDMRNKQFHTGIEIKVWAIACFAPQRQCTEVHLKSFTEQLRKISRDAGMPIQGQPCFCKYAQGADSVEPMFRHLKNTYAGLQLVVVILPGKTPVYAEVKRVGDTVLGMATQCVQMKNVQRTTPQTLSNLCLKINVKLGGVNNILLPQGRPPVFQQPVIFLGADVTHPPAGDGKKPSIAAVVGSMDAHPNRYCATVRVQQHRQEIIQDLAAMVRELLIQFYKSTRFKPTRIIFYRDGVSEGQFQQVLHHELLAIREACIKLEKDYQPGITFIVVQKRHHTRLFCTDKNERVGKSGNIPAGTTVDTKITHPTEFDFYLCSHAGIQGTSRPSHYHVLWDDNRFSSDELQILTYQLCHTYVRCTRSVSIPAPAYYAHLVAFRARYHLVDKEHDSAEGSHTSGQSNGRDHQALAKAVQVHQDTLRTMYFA
T2 sequence (Q9UKV8 whole entry): as above

Consider `N[C@@H](CSN=O)C(=O)O` [CysNO, S-nitrosocysteine], for which, at AGO2 [1] (HEK293 cells transfected with WT AGO2, 100 μM), the “S-nitrosylation of WT AGO2” value is on record as “strongly S-nitrosylated”.

For the molecule `NCCN(CCN)/[N+]([O-])=N/O` [DETA-NO, DETA-NONOate], the t1/2 in series [2] is 20 h. In addition, the “WT AGO2 repression of luciferase target” value at AGO2 [3] is listed as “repressed its target poorly”. For the same molecule, the “S-nitrosylation of AGO2 by endogenous eNOS” value at AGO2 [1] (HEK293 cells, 500 μM) is recorded as “enhanced”. Further, the “association of WT AGO2 with GW182” value on AGO2 and GW182 (co-immunoprecipitation, transfected HEK293 cells) is listed as “strongly inhibited”. Also, on AGO2 and GW182 (cultured mammalian cells), the “interaction between endogenous AGO2 and GW182” value was “inhibited”. For the same molecule, the “mutant C691S AGO2 activity” value on AGO2 [4] was “little effect”.

(Values after patent publication US20220184143A1, “COMPOSITIONS AND METHODS OF MODULATING CASOTRANSMITTER SIGNALING” (CASE WESTERN RESERVE UNIVERSITY, priority 2019, published 2022).)
